Counter-ions that a name gives are not always drawn.
Legend:
[1] = In vitro release through dialysis bag in rabbit vitreous humor; assay type: in vitro ADME; settings: PBS pH 7.4, 37° C., released immediately, FIG. 1
Method: Each dialysis bag contained 950 μL of rabbit vitreous humor (Pel-Freez Biologicals, USA) and both ends of the dialysis bags were then sealed. Each dialysis bag was immersed in 25 mL of PBS at pH 7.4 in a 50-mL centrifuge tube and incubated in a water bath at 37±1° C. for 24 hours. At designated time points after incubation (1, 2, 4, 6, 24, 48, 122, 146 and 168 hours), 0.5 mL aliquot from the 25 mL PBS inside each centrifuge tube was sampled and 0.5 mL of fresh PBS was added to replenish the sampled aliquot. Drug concentrations of the sampled aliquots at each time point were analyzed using high performance liquid chromatography (HPLC) to create the in vitro release profile of the liposomal composition.

[2] = Drug loading of liposomes by remote loading: drug to lipid molar ratio and encapsulation efficiency; assay type: physicochemical; settings: 300 mM AS, 2 mg/mL drug
Method: The dry lipid was hydrated in a trapping agent, 300 mM ammonium sulfate (AS), for 30 min at the temperature above the transition temperature to form the MLVs. […] After extrusion, unencapsulated trapping agent was removed by dialysis method or diafiltration method against 9.4% sucrose solution or 0.9% NaCl to create a polyatomic ion gradient between the inner aqueous phase and the outer aqueous phase of the empty liposomes.
A reaction mixture containing 10.0 mg/mL of sunitinib (LC Laboratories, USA), empty liposomes (with 20.0 mM of lipids prepared according to Example 1), and 40 mM histidine buffer (pH 7) was incubated at 40° C. for 15 min The unencapsulated sunitinib of the reaction mixture was removed by a Sephadex™ G-50 Fine gel (GE Healthcare, USA) or dialysis bag (Spectrum Labs, USA) against a 9.4% sucrose solution to obtain a liposomal sunitinib formulation. The encapsulated sunitinib concentration and the lipid concentration of the liposomal sunitinib formulation were measured using an ultraviolet/visible (UV/Vis) spectrophotometer to calculate the drug to lipid molar ratio (D/L) of the liposomal sunitinib formulation.
The encapsulation efficiency was calculated by comparing the drug to lipid molar ratio (D/L) of the liposomal sunitinib formulation to the nominal D/L of the reaction mixture, which is dividing the initial added concentration of sunitinib by the initial added concentration of lipid of empty liposome.
An initial loading concentration of 4.0 mg/mL of sunitinib or sunitinib malate was mixed with the empty liposomes according to the procedures of Example 2.

[3] = liposomes DOPC/cholesterol (66.7/33.3)
[4] = liposomes POPC/cholesterol (66.7/33.3)

SMILES	time after which release reached a plateau [1] [h]	EE (%), encapsulation efficiency [2, 3] [%]	Purified D/PL (mole/mole) [2, 3] [mole/mole]	EE (%), encapsulation efficiency [2, 4] [%]	Purified D/PL (mole/mole) [2, 4] [mole/mole]
CCN(CC)CCNC(=O)c1c(C)[nH]c(/C=C2\C(=O)Nc3ccc(F)cc32)c1C [free sunitinib, sunitinib]	6	–	–	–	–
Cc1ccc(NC(=O)c2ccc(CN3CCN(C)CC3)cc2)cc1Nc1nccc(-c2cccnc2)n1 [Imatinib, imatinib mesylate]	–	91.3	1.24	66.6	0.90

— patent publication US20210275447A1, “SUSTAINED-RELEASE OPHTHALMIC PHARMACEUTICAL COMPOSITIONS AND USES THEREOF” (TAIWAN LIPOSOME CO., LTD., priority 2018, published 2021)
